Results on three molecules are retold here after patent publication US7595395B2, “Gabaergic agents to treat memory deficits” (priority 2005, dated 2009).

In assay [1] the target is α1β3γ2 GABAA receptor (Rattus norvegicus, UniProt P18508+P62813). The assay can be described thus: Two-electrode voltage clamp in Xenopus oocytes, α1β3γ2. The note with it: oocytes. Background: Two-electrode voltage clamp is typically applied to oocytes expressing channels or transporters.
Assay [2] has as its system C57B1/6 mice. The assay can be described thus: Pavlovian fear conditioning, contextual memory, scopolamine impairment. In kind it is in vivo. The note with it: for fear conditioned contextual memory, impairment by scopolamine (in words): 10 mg/kg compound, 1 mg/kg scopolamine, mouse; for reversal of scopolamine induced memory deficits (in words): mice, dose not stated. The procedure:
Because the hippocampus is involved in the regulation of events underlying learning and memory, α5 subtype selective agents were evaluated for their ability to modulate hippocampal-dependent and hippocampal-independent forms of memory using Pavlovian fear conditioning paradigms with mice or rats. The protocols for these studies were reported in references Bailey, D. J., Tetzlaff, J. E., Cook, J. M., He, X. H. and Helmstetter, F. J., “Effects of Hippocampal Injections of A Novel Ligand Selective for the Alpha 5 Beta 2 Gamma 2 Subunits of the GABA/Benzodiazepine Receptor on Pavlovian Conditioning,” Neurobiol. Learn. Mem., 78, 1-10 (2002); Delorey, T. M., Lin, R. C., Mcbrady, B., He, X. H., Cook, J. M., Lameh, J. and Loew, G. H., “Influence of Benzodiazepine Binding Site Ligands on Fear-Conditioned Contextual Memory,” Eur. J. Pharmacol., 426, 45-54 (2001).
Further, animal data for FIGS. 22-26 were obtained using experimental methodologies described in a previously published reference, Influence of benzodiazepine binding site ligands on fear-conditioned contextual memory European journal of Pharmacology, Volume 426, Issues 1-2, 24 Aug. 2001, Pages 45-54, Timothy M. DeLorey, Richard C. Lin, Brian McBrady, Xiaohui He, James M. Cook, Jelveh Lameh and Gilda H. Loew, which is incorporated by reference as if fully set forth here in its entirety. Selected sections of the reference are provided below:
Male C57B1/6 mice were obtained from Charles Rivers Laboratories (Holister, Calif.) at 6 weeks of age. Mice used in fear conditioning were between 7 and 12 weeks of age. Animals were housed eight to a cage in rooms with a normal 12-h light/12-h dark cycle (lights on 700-1900 h) with free access to food and water. Tests were conducted during the light phase between 1300 and 1700 h with a 20-min acclimation period in the testing room prior to drug or vehicle administration. All animal protocols used in this study conform to the guidelines determined by the National Institute of Health (USA) Office for Protection from Research Risks and are approved by the Animal Care and Use Committee of the Palo Alto Veterans Administration Medical Center, Palo, Alto, Calif. (USA).
Before testing each day, the mice were moved to a holding room and allowed to acclimate for at least 30 min. Each mouse received an i.p. injection of one of the following: vehicle, benzodiazepine binding site ligand (2-30 mg/kg), scopolamine (1 mg/kg), methylscopolamine (1 mg/kg) or scopolamine (1 mg/kg) combined with one of the benzodiazepine binding site ligands (2-30 mg/kg). The dose level chosen for each compound was one that neither elicited convulsions nor impaired locomotion. Twenty minutes after injection, the mice were placed individually in one of four identical experimental chambers (Med Associates, St. Albans, Vt.) that had been scented with 0.3% ammonium hydroxide solution before testing. Chambers were back-lit with fluorescent light with a white noise generator providing 70 dB of background noise. […] Twenty-four hours later, contextual memory was assessed by placing the mice back into the freshly rescented (0.3% Ammonium hydroxide) conditioning chambers in which they were trained, for a 4-min test period in the absence of footshock. Conditioned fear to the context was assessed by measuring the freezing response according to the methods of Fanselow and Bolles (1979). […] An observer, blind to the drug(s) used, scored each mouse every 8 s, for a total of 4 min, for presence or absence of freezing. […]

Sequence of α1β3γ2 GABAA receptor (P62813 28-455): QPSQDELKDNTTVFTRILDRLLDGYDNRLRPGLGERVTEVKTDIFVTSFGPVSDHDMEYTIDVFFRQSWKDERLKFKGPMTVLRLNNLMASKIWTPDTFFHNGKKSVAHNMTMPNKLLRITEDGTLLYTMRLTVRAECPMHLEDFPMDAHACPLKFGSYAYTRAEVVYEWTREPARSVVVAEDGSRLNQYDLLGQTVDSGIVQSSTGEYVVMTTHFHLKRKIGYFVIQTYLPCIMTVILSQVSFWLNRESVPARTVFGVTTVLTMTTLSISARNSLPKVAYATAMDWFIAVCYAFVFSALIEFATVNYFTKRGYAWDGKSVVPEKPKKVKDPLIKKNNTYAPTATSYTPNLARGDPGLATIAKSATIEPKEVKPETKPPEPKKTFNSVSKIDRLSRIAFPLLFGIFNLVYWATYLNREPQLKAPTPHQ
Sequence of α1β3γ2 GABAA receptor (P63079 26-473 partner): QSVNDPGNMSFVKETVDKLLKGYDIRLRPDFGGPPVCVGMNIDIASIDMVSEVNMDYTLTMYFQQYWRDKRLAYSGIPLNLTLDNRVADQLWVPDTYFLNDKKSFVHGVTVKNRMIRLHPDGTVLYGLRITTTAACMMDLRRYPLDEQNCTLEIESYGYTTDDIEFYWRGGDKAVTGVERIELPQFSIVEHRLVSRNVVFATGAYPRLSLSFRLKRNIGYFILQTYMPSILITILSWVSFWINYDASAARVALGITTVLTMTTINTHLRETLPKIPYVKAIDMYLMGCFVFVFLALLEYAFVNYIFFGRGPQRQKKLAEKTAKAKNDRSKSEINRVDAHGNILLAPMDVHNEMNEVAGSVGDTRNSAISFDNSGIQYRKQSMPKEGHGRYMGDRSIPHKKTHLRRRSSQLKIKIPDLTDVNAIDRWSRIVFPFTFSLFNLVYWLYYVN
Sequence of α1β3γ2 GABAA receptor (P18508 39-466): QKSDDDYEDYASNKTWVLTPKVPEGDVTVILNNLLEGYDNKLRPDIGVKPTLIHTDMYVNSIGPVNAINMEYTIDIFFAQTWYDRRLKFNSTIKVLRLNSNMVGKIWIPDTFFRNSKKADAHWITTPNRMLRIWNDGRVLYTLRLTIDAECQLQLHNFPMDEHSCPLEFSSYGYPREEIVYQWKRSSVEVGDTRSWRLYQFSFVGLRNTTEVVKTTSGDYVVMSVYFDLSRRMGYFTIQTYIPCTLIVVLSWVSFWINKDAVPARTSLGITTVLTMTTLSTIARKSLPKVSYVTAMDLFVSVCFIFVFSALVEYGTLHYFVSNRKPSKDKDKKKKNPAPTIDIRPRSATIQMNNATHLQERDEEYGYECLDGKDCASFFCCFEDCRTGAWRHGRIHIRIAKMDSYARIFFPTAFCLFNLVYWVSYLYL

With `CCOC(=O)c1ncn2c1CN=C(c1ccccc1)c1cc(-c3ccccc3)ccc1-2` [DM-I-81, Ethyl 8-phenyl-6-phenyl-4H-benzo[f]imidazo[1,5-a][1,4]diazepine-3-carboxylate], the “efficacy / modulation of GABA elicited currents at α1 (in words)” value in assay [1] was “very poor efficacy”.
As for `COCc1ncn2c1CN(C)C(=O)c1cc(Cl)ccc1-2` [PWZ-029, methyl(8-chloro-5,6-dihydro-5-methyl-6-oxo-4H-imidazo[1,5-α][1,4]benzodiazepin-3-yl)methyl ether], in assay [2], the “fear conditioned contextual memory, impairment by scopolamine (in words)” value is listed as “attenuation of contextual memory impairment” and the “reversal of scopolamine induced memory deficits (in words)” value is “reverse scopolamine induced memory deficits”.
Take `CCc1ccc2c(c1)C(=O)N(C)Cc1c(C(=O)OCCCOC(=O)c3ncn4c3CN(C)C(=O)c3cc(CC)ccc3-4)ncn1-2` [XLi356, 1,3-Bis(8-ethyl-5,6-dihydro-5-methyl-6-oxo-4H-imidazo[1,5a][1,4]benzodiazepine-3-carboxy)propyl diester]: the “fear conditioned contextual memory, impairment by scopolamine (in words)” value in assay [2] was “attenuates the impairment of memory”. The “reversal of scopolamine induced memory deficits (in words)” value in assay [2] (listed as XLi 356) is recorded as “potently reverse scoploamine induced memory deficiencies”; in assay [2] (listed as Xli356), “reverse scopolamine induced memory deficits”. Further, the “efficacy / modulation of GABA elicited currents at α1 (in words)” value in assay [1] is reported as “no activity”.
